Reference: PMC10959927, “Platinum iodido drugs show potential anti-tumor activity, affecting cancer cell metabolism and inducing ROS and senescence in gastrointestinal cancer cells” (Communications Biology, 2024)
Values joined by “and” are separate entries in the source; they are usually repeats but may differ in a detail not shown here. Equal entries are not always repeated.

Legend:
CC2509 fibroblasts = assay: Cell viability, crystal violet staining, non-tumoral cells; conditions: CC2509, 48 h; for IC50: read-out: IC50 concentration (± SD) at 48 h in non-tumoral cell lines
Method: (§1) Cell viability was assessed using a crystal violet-based staining method. […] The cells (2 × 10^5) were seeded in 24-multiwell dishes in 0.5 mL of complete medium and incubated overnight. […] After 48 h, cells were fixed with 1% glutaraldehyde (20–30 min), washed with distilled water, and stained with 0.1% crystal violet. […] IC50 were calculated by using GraphPad Prism (version 8.0). Nonlinear regression was used to fit the data to the log (inhibitor) versus response (variable slope).

HPDE cells = assay: as above; conditions: for percentage of viable cells: 48 h; for IC50: read-out: IC50 concentration (± SD) at 48 h in non-tumoral cell lines
Method: as §1

[1] = tested on: telomeres, 36B4, MT-COX1, MT-CYB DNA of MKN45 cells; assay: Oxidized bases (FPG-sensitive lesions) in genome regions by qPCR; type: cell-based, human; conditions: MKN45, IC50 concentration 24 h, normalized to control, single replicates; for TEL (Fold change - ΔCt TEL), oxidative DNA damage: FPG-digested vs undigested
Source text: (§2) Total cellular DNA from MKN45 and PANC1 cells was extracted using an NZY Tissue gDNA Isolation Kit (Nzytech, MB13503) following the manufacturer’s instructions and quantified using a Nanodrop (Nanodrop Spectrophotometer ND-1000, ThermoFisher Scientific, Wilmington, DE, USA). We adapted the procedure described by O’Callaghan et al.[76] to measure oxidative DNA damage at telomeres, 36B4 genomic region and at mitochondrial DNA (MT-COX1, MT-CYB). This is a qPCR method based on differences in PCR kinetics between DNA template digested by Formamidopyrimidine DNA Glycosylase (FPG, Cat no. M0240S) and undigested DNA. This enzyme recognizes and cuts 8-oxoguanine, producing apurinic sites that are converted into single-strand breaks by its apurinic sites lyase activity. These single-strand breaks inhibit the PCR, thus, the ΔCT after digesting DNA by […] (Ct digested–Ct undigested) is proportional to the oxidative damage in the amplified region. DNA was incubated with 8 Units of FPG during 3 h in FPG buffer (NEB1, M0240S). The reaction was stopped by incubation at 95 °C for 5 min. qPCR analysis was performed on 40 ng of digested or undigested genomic DNA. Each qPCR was performed in triplicate including no-template controls in a StepOne Real‐time PCR System (Applied Biosystems, 4376357). Target genes (Table 3) were amplified using SYBR Green (Applied Biosystems, MB345). Thermal cycling of the qPCR reaction was initiated with a denaturation step at 95 °C for 10 min. The process consisted of 40 cycles (denaturation at 95 °C for 15 sec, annealing at 60 °C for 30 sec, and elongation at 72 °C for 30 sec). This experiment was repeated three independent times with 10–12 replicates.

[2] = tested on: telomeres, 36B4, MT-COX1, MT-CYB DNA of PANC1 cells; assay: as above; type: cell-based, human; conditions: PANC1, IC50 concentration 24 h, normalized to control, single replicates; for TEL (Fold change - ΔCt TEL), oxidative DNA damage: FPG-digested vs undigested
Source text: as §2

AGS cells = assay: Flow cytometry mitochondrial mass and membrane potential (MitoTracker Green / CMXRos); type: cell-based, human; conditions: fold change vs C, replicates
Method: (§3) We used flow cytometry to study the mitochondrial mass, mitochondrial membrane potential (ΔΨm) and cellular senescence of untreated and treated cells. Cells (5 × 10^4) were seeded in 24-multiwell dishes and cultured overnight. […] Cells were tripsinized, stained with Mitoprobes and resuspended in Flow buffer [1X PBS; 3% Fetal Bovine Serum (v/v); 3 mM EDTA (v/v)] before analysis with a 4-laser Attune NxT Acoustic Cytometer (Thermo Fisher Scientific). For Mitoprobe assays, […] DAPI (Sigma) was used to exclude dead cells. Data were analyzed with FlowJo 9.3 software (Tree Star Inc., Ashland, OR). For mitochondrial mass and ΔΨm measurement, Mitotracker Green (MTGreen, M7514, Invitrogen) and Mitotracker Red CMXRos (CMXROS, M7512, Invitrogen) were used, respectively. Probes were incubated with cells for 30 min at 37 °C at a concentration of 100 nM (MTGreen) and 20 nM (CMXROS), and fluorescence was detected using the filters (Ex488nm/Em530/30) BL1 and (Ex561nm/Em585/16) YL1, respectively. To determine mitochondria functionality, the ratio between ΔΨm (MitoTracker Red CMXRos) versus Mit. Mass (MitoTracker Green) was calculated. The gating strategy used in all the Flow Cytometry experiments is reflected in Fig.S10.

MKN45 cells = assay: as above; type: cell-based, human; conditions: for Fold change ΔΨm/MM: MKN45, IC50 doses 24 h, CMX-ROS/MitoGreen ratio vs untreated 1.0; for Fold change %CMXROS, ΔΨm / Fold change %MTGreen, MM: MKN45, fold change vs C, replicates
Method: as §3

PANC1 cells [3] = assay: as above; type: cell-based, human; conditions: for Fold change ΔΨm/MM: PANC1, IC50 doses 24 h, CMX-ROS/MitoGreen ratio vs untreated 1.0; for Fold change %CMXROS, ΔΨm / Fold change %MTGreen, MM: PANC1, fold change vs C, replicates
Method: as §3

PANC1 cells [4] = assay: Clonogenic (CFU) assay after 1, 3, 24 h pre-treatment; type: cell-based, human
Method: For the clonogenic assay we used two different approaches. […] Then, cells were cultured in a 6-well plate at a very low concentration (2 × 10^3 cells per well) and incubated for 10 days. […] To evaluate the role of ROS in cell proliferation, we supplemented the growth medium with 0.5 mM NAC. After 10 days, the cells were fixed with 1% glutaraldehyde and stained with 0.1% crystal violet. The number of colonies was quantified directly and reflected as CFUs: Colony Forming Units.

[5] = PANC1, 1 h pre-treatment at IC50, colonies after 10 days
[6] = PANC1, 3 h pre-treatment at IC50, colonies after 10 days

Row | Compound | percentage of viable cells (CC2509 fibroblasts; dose 2.5 µM) | percentage of viable cells (CC2509 fibroblasts; dose 5 µM) | percentage of viable cells (CC2509 fibroblasts; dose 10 µM) | percentage of viable cells (CC2509 fibroblasts; dose 25 µM) | percentage of viable cells (CC2509 fibroblasts; dose 50 µM) | IC50 (CC2509 fibroblasts) | percentage of viable cells (HPDE cells; dose 2.5 µM) | percentage of viable cells (HPDE cells; dose 5 µM) | percentage of viable cells (HPDE cells; dose 10 µM) | percentage of viable cells (HPDE cells; dose 25 µM) | percentage of viable cells (HPDE cells; dose 50 µM) | IC50 (HPDE cells) | TEL (Fold change - ΔCt TEL), oxidative DNA damage [1] | 36B4 (Fold change - ΔCt 36B4), oxidative DNA damage [1] | MT-COX1 (Fold change - ΔCt MT-COX1), oxidative DNA damage [1] | MT-CYB (Fold change - ΔCt MT-CYB), oxidative DNA damage [1] | TEL (Fold change - ΔCt TEL), oxidative DNA damage [2] | 36B4 (Fold change - ΔCt 36B4), oxidative DNA damage [2] | MT-COX1 (Fold change - ΔCt MT-COX1), oxidative DNA damage [2] | MT-CYB (Fold change - ΔCt MT-CYB), oxidative DNA damage [2] | also measured
1 | CC(C)[NH][Pt@SP1]([I])([I])[NH]C(C)C [I6, cis-[PtI2(isopropylamine)2]] | 101.369% and 68.5642% and 72.6415% | 100.382% and 62.1377% and 89.6445% | 50.1592% and 62.7776% and 90.9953% | 52.2611% and 59.729% and 78.3886% | 30.3822% and 34.0139% and 46.6351% | 35 µM and 33.8 µM | 88.7955% and 72.4125% and 95.3401% | 78.4314% and 72.7203% and 72.6353% | 57.5163% and 55.8292% and 52.5038% | 22.9225% and 35.4367% and 19.9292% | 8.5901% and 14.6939% and 8.599% | 15 µM and 14.2 µM | 0.7872 and 0.7903 and 0.6876 and 0.7373 and 0.6171 and 1.142 and 1.077 and 1.074 and 1.391 | 0.9227 and 0.9306 and 1.569 and 1.862 and 2.074 and 2.392 and 1.861 and 2.101 and 1.707 and 2.034 | 1.321 and 1.289 and 1.307 and 1.545 and 0.7235 and 0.8203 and 2.299 and 2.595 and 3.243 and 4.134 | 1.235 and 1.231 and 1.262 and 1.5934 and 1.492 and 1.356 and 1.4814 and 1.489 and 0.5469 and 0.6464 and 1.605 | 5.579 and 4.9877 and 4.471 and 0.2398 and 0.9572 and 1.407 and 2.172 and 1.711 and 1.673 and 1.777 | 1.888 and 2.028 and 1.034 and 1.832 and 3.4044 and 3.392 and 3.578 and 2.951 and 2.103 and 2.482 | 1.444 and 1.678 and 1.516 and 1.609 and 1.88 and 0.5367 and 1.4145 and 1.209 and 1.263 and 1.421 | 1.356 and 1.264 and 1.349 and 1.774 and 2.04 and 1.998 and 2.191 and 4.689 and 8.16 and 4.981 and 6.184 | Fold change %CMXROS, ΔΨm (AGS cells): 0.58 and 0.29 and 0.42; Fold change %MTGreen, MM (AGS cells): 0.83 and 0.75 and 1.298; Fold change ΔΨm/MM (MKN45 cells): 0.26 and 0.21 and 0.27; Fold change %CMXROS, ΔΨm (MKN45 cells): 0.24 and 0.19 and 0.3; Fold change %MTGreen, MM (MKN45 cells): 0.93 and 0.91 and 1.1; Fold change ΔΨm/MM (PANC1 cells [3]): 0.61 and 0.39 and 0.44; Fold change %CMXROS, ΔΨm (PANC1 cells [3]): 0.75 and 0.98 and 0.61; Fold change %MTGreen, MM (PANC1 cells [3]): 1.22 and 2.53 and 2.1; CFUs (PANC1 cells [4]; [5]): 336 and 264 and 360; CFUs (PANC1 cells [4]; [6]): 292 and 280 and 324
2 | CC(C)[NH][Pt@SP3]([I])([I])[NH]C(C)C [I5, trans-[PtI2(isopropylamine)2]] | 100.938% and 100.862% and 91.106% | 83.0553% and 85.5747% and 89.9658% | 93.9868% and 89.8276% and 94.7548% | 85.5057% and 58.6494% and 84.1505% | 74.4584% and 49.6552% and 58.3178% | 74.1 ± 5.42 µM | 94.0083% and 103.787% and 91.0112% | 95.3512% and 98.9765% and 89.3059% | 88.9979% and 69.4985% and 69.7172% | 58.8843% and 42.8352% and 30.2314% | 20.4029% and 27.175% and 15.1157% | 26 µM and 25 µM and 26.8 µM | 0.4976 and 1.204 and 0.863 and 1.649 and 1.472 and 1.233 and 1.0991 and 1.079 and 1.087 and 1.22 | 1.703 and 1.211 and 0.8373 and 1.374 and 1.447 and 1.358 and 1.5791 and 1.8961 and 1.25 and 1.252 and 1.777 | 1.17 and 1.1588 and 1.212 and 1.316 and 0.8751 and 0.7769 and 2.591 and 2.527 and 2.762 and 3.255 | 1.053 and 0.8867 and 1.024 and 1.423 and 1.446 and 1.223 and 1.361 and 1.391 and 5.526 and 1.559 and 1.507 and 3.466 | -0.2993 and -0.2888 and -0.1094 and 0.05784 and 0.7794 and 0.6409 and 1.117 and 1.284 and 1.153 and 1.2407 | 1.4221 and 1.29 and 0.7644 and 2.073 and 2.467 and 2.333 and 2.539 and 4.489 and 2.165 and 1.996 and 1.737 | 1.203 and 1.298 and 1.208 and 1.316 and 1.536 and 0.9948 and 1.085 and 1.109 and 1.083 and 1.329 | 1.015 and 1.063 and 1.122 and 1.165 and 2.0159 and 1.972 and 2.298 and 2.283 and 3.887 and 4.47 and 3.714 and 6.805 | percentage of viable cells (CC2509 fibroblasts; dose 100 µM): 38.4658% and 29.1313% and 33.9772%; Fold change %CMXROS, ΔΨm (AGS cells): 0.96 and 0.93 and 0.85; Fold change %MTGreen, MM (AGS cells): 1.08 and 1.04 and 1.0618; Fold change ΔΨm/MM (MKN45 cells): 0.47 and 0.42 and 0.46; Fold change %CMXROS, ΔΨm (MKN45 cells): 0.4 and 0.35 and 0.72; Fold change %MTGreen, MM (MKN45 cells): 0.86 and 0.82 and 1.11; Fold change ΔΨm/MM (PANC1 cells [3]): 0.46 and 0.55 and 0.5; Fold change %CMXROS, ΔΨm (PANC1 cells [3]): 1.17 and 1.2 and 1.05; Fold change %MTGreen, MM (PANC1 cells [3]): 2.17 and 2.54 and 2.28; CFUs (PANC1 cells [4]; [5]): 176 and 164 and 136; CFUs (PANC1 cells [4]; [6]): 104 and 76 and 68
